Assays:
[1] = tested on: A549 cells; assay: MTT cell proliferation assay; format: cell-based; conditions: Homo sapiens, 72-hour MTT
How it was run: (§1)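 After overnight attachment at 5,000-10,000 cells per well, cultures receive test compound at eight levels (1 nM to 30 μM) for 72 h, followed by roughly 4 h with MTT. Dissolved formazan is quantified at 490 nm, giving percent inhibition against untreated control.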

[2] = tested on: AML-193 cells; assay: MTT cell proliferation assay; format: cell-based; conditions: 72-hour MTT
How it was run: as §1

[3] = tested on: ARPE-19 cells; assay: MTT cell proliferation assay; format: cell-based; conditions: Homo sapiens, 72-hour MTT
How it was run: as §1

[4] = tested on: BL-2 cells; assay: MTT cell proliferation assay; format: cell-based; conditions: BL2, 72-hour MTT
How it was run: as §1

[5] = tested on: BT-474 cells; assay: MTT cell proliferation assay; format: cell-based; conditions: Homo sapiens, 72-hour MTT
How it was run: as §1

[6] = tested on: Calu-3 cells; assay: MTT cell proliferation assay; format: cell-based; conditions: Homo sapiens, 72-hour MTT
How it was run: as §1

[7] = tested on: DU-4475 cells; assay: MTT cell proliferation assay; format: cell-based; conditions: Homo sapiens, 72-hour MTT
How it was run: as §1

[8] = tested on: Daudi cells; assay: MTT cell proliferation assay; format: cell-based; conditions: Homo sapiens, 72-hour MTT
How it was run: as §1

[9] = tested on: HCC-202 cells; assay: MTT cell proliferation assay; format: cell-based; conditions: HCC202, 72-hour MTT
How it was run: as §1

[10] = tested on: HCC-2935 cells; assay: MTT cell proliferation assay; format: cell-based; conditions: Homo sapiens, HCC2935, 72-hour MTT
How it was run: as §1

[11] = tested on: HT1080 cells; assay: MTT cell proliferation assay; format: cell-based; conditions: Homo sapiens, HT-1080, 72-hour MTT
How it was run: as §1

[12] = tested on: L3.6pl cells; assay: MTT cell proliferation assay; format: cell-based; conditions: Homo sapiens, 72-hour MTT
How it was run: as §1

[13] = tested on: MDA-MB-175 cells; assay: MTT cell proliferation assay; format: cell-based; conditions: 72-hour MTT
How it was run: as §1

[14] = tested on: MDA-MB-361 cells; assay: MTT cell proliferation assay; format: cell-based; conditions: Homo sapiens, 72-hour MTT
How it was run: as §1

[15] = tested on: MINO cells; assay: MTT cell proliferation assay; format: cell-based; conditions: Homo sapiens, 72-hour MTT
How it was run: as §1

[16] = tested on: MO7e cells; assay: MTT cell proliferation assay; format: cell-based; conditions: 72-hour MTT
How it was run: as §1

[17] = tested on: NCI-H1299 cells; assay: MTT cell proliferation assay; format: cell-based; conditions: Homo sapiens, 72-hour MTT
How it was run: as §1

[18] = tested on: NCI-H226 cells; assay: MTT cell proliferation assay; format: cell-based; conditions: Homo sapiens, 72-hour MTT
How it was run: as §1

[19] = tested on: NCI-H508 cells; assay: MTT cell proliferation assay; format: cell-based; conditions: Homo sapiens, 72-hour MTT
How it was run: as §1

[20] = tested on: NHEK cells; assay: MTT cell proliferation assay; format: cell-based; conditions: 72-hour MTT
How it was run: as §1

[21] = tested on: PATU-8902 cells; assay: MTT cell proliferation assay; format: cell-based; conditions: 72-hour MTT
How it was run: as §1

[22] = tested on: PL-45 cells; assay: MTT cell proliferation assay; format: cell-based; conditions: PL45, 72-hour MTT
How it was run: as §1

[23] = tested on: RKO cells; assay: MTT cell proliferation assay; format: cell-based; conditions: Homo sapiens, 72-hour MTT
How it was run: as §1

[24] = tested on: RL cells; assay: MTT cell proliferation assay; format: cell-based; conditions: Homo sapiens, 72-hour MTT
How it was run: as §1

[25] = tested on: SHP-77 cells; assay: MTT cell proliferation assay; format: cell-based; conditions: Homo sapiens, SHP77, 72-hour MTT
How it was run: as §1

[26] = tested on: SHSY5Y cells; assay: MTT cell proliferation assay; format: cell-based; conditions: Homo sapiens, SH-SY5Y, 72-hour MTT
How it was run: as §1

[27] = tested on: SW-403 cells; assay: MTT cell proliferation assay; format: cell-based; conditions: Homo sapiens, 72-hour MTT
How it was run: as §1

[28] = tested on: SW-900 cells; assay: MTT cell proliferation assay; format: cell-based; conditions: Homo sapiens, SW900, 72-hour MTT
How it was run: as §1

[29] = tested on: T47D cells; assay: MTT cell proliferation assay; format: cell-based; conditions: Homo sapiens, 72-hour MTT
How it was run: as §1

[30] = tested on: PAK4 signalling in IMR-90 cells; assay: Western blots of PAK4 signalling in normal cells (IMR-90); format: cell-based; conditions: IMR-90 normal cell line; 72-hour treatment, increasing concentrations; Western blot
Description: Normal human dermal fibroblasts (NHDF) and normal lung cells (IMR-90) were treated with Compound 585 for 72 hours, at which time the cells were lysed in RIPA buffer. The lysates were run on SDS-PAGE and Western blots of phospho-PAK4, PAK4, phospho-cofilin, cofilin, phospho-β-catenin, β-catenin, PARP and caspase-3 were performed.

[31] = tested on: U2OS cells; assay: Staining of β-catenin, cofilin and F-actin in fixed U2OS cells; format: cell-based, human; conditions: 1 μM, 48 hours
Description: U2OS cells were grown on coverslips and treated with DMSO or 1 μM Compound 585 for 48 hours, at which time the cells were fixed and stained. The cells were labeled with phospho- or total β-catenin antibodies; phospho- or total cofilin antibodies; or ALEXA-FLUORO 488 phalloidin. Both phospho- and total β-catenin were reduced by treatment with Compound 585. Both phospho- and total cofilin were reduced by treatment with Compound 585. ALEXA-FLUORO 488 phalloidin was used to stain F-actin.

[32] = tested on: normal cells; assay: 72-hour MTT cell proliferation assay, summary over the normal cell lines tested; format: cell-based; conditions: normal cells (n=10): NHDF, 3T3, NHEK, IMR-90, PBMC, ARPE-19, HS738.st, WI-38, MRC-5, RWPE-1
Description: The MTT cell proliferation assay was used to study the cytotoxic properties of the compounds. The assay was performed according to the method described by Roche Molecular Biochemicals, with minor modifications. The assay is based on the cleavage of the tetrazolium salt, MTT, in the presence of an electron-coupling reagent. The water-insoluble formazan salt produced must be solubilized in an additional step. Cells grown in a 96-well tissue culture plate were incubated with the MTT solution for approximately 4 hours. After this incubation period, a water-insoluble formazan dye formed. After solubilization, the formazan dye was quantitated using a scanning multi-well spectrophotometer (ELISA reader). […] The cells were seeded at 5,000-10,000 cells in each well of 96-well plate in 100 μL of fresh culture medium and were allowed to attach overnight. The stock solutions of the compounds were diluted in 100 μL cell culture medium to obtain eight concentrations of each test compound, ranging from 1 nM to 30 μM. […] All optical densities were measured at 490 nm using a Vmax Kinetic Microplate Reader (Molecular Devices). In most cases, the assay was performed in duplicate and the results were presented as a mean percent inhibition to the negative control±SE. The following formula was used to calculate the percent of inhibition: Inhibition (%)=(1−(ODo/OD))×100. […]

Nc1ccc(/C=C/C(=O)NCc2cc3cc(-c4ccc(C(=O)N5CCC(F)(F)CC5)cn4)cc(C(F)(F)F)c3o2)cn1 [Compound 585, (E)-3-(6-aminopyridin-3-yl)-N-((5-(5-(4,4-difluoropiperidine-1-carbonyl)pyridin-2-yl)-7-(trifluoromethyl)benzofuran-2-yl)methyl)acrylamide]
IC50 [1]: 0.57 µM | IC50 [2]: 0.03 µM | IC50 [3]: 0.78 µM | IC50 [4]: 0.18 µM | IC50 [5]: 6.47 µM | IC50 [6]: 0.33 µM | IC50 [7]: 0.09 µM | IC50 [8]: 0.04 µM | IC50 [9]: 1.69 µM | IC50 [10]: 4.39 µM | IC50 [11]: 0.21 µM | IC50 [12]: 0.07 µM | IC50 [13]: > 10 µM | IC50 [14]: > 10 µM | IC50 [15]: 0.11 µM | IC50 [16]: 0.02 µM | IC50 [17]: 0.19 µM | IC50 [18]: 6.78 µM | IC50 [19]: 1.46 µM | IC50 [20]: 10.4 µM | IC50 [21]: 0.51 µM | IC50 [22]: 1.01 µM | IC50 [23]: 0.05 µM | IC50 [24]: 0.21 µM | IC50 [25]: 0.21 µM | IC50 [26]: 0.12 µM | IC50 [27]: 0.38 µM | IC50 [28]: > 10 µM | IC50 [29]: 0.04 µM | effect on PAK4 signalling (phospho-PAK4, PAK4, phospho-cofilin, cofilin, phospho-β-catenin, β-catenin, PARP, caspase 3) [30]: little to no effect | stress fiber formation (F-actin, phalloidin) [31]: increase in stress fiber formation | phospho- and total cofilin ([31]; antibody staining): reduced | phospho- and total β-catenin ([31]; antibody staining): reduced | inhibition of normal cells [32]: did not inhibit
